In publication PMC11945486, “TAS1R2/TAS1R3 Single-Nucleotide Polymorphisms Affect Sweet Taste Receptor Activation by Sweeteners: The SWEET Project” (Nutrients, 2025):

Biological target: T1, human TAS1R2-P21L (subunit alone) (Homo sapiens, UniProt Q8TE23, P21L)
T1 construct: expressed in transfected cells; host or cells: HEK293T-Gα16gust44
T1 sequence (Q8TE23 20-839 P21L): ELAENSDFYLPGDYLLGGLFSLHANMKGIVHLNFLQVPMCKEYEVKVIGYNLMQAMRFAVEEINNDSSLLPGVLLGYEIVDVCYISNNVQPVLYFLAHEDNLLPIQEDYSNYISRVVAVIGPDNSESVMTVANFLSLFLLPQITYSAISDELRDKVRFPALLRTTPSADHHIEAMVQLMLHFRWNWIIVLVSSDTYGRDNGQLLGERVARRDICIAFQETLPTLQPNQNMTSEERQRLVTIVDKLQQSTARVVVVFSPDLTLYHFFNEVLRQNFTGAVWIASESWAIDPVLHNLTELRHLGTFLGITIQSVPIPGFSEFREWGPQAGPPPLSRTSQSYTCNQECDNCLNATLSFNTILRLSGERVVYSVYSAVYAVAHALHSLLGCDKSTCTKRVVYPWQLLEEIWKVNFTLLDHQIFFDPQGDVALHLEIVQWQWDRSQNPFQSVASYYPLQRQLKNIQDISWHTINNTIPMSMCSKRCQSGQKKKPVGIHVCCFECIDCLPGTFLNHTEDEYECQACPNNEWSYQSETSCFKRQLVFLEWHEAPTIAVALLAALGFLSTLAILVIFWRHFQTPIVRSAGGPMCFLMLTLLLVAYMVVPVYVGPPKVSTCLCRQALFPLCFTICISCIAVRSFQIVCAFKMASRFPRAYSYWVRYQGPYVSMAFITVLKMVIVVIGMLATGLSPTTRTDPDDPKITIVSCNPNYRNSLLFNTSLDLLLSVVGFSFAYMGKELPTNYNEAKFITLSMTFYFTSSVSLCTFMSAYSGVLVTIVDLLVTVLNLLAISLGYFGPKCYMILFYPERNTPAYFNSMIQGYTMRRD
Assay: Calcium mobilisation assay, TAS1R2-P21L subunit alone
Type: cell-based
Excerpt: The coding sequences for TAS1R2 and TAS1R3 were commercially synthesised, and the human codon was optimised for expression in human cells. The coding sequences of human TAS1R2 and TAS1R3 were subcloned and inserted into the mammalian expression vectors pcDNA6/myc-HisA and pcDNA4/myc-HisA (Invitrogen; Thermo Fisher Scientific; Illkirch, France) between the EcoRI and NotI restriction sites, generating the plasmids pcDNA6-TAS1R2 and pcDNA4-TAS1R3, respectively. To increase protein expression in mammalian cells, an upstream start codon was used, which was a sequence called MAX, corresponding to the QBI SP163 element also described in pcDNA4-HisMax (Invitrogen; Thermo Fisher Scientific; Illkirch, France). To measure the expression level of the receptor by immunohistochemistry, we used the FLAG sequence ([…]) in the C-terminal position, which encodes the FLAG tag epitope. […]
The HEK293T cells were kindly provided by Jay P. Slack (Givaudan Flavors Corporation; Cincinnati, OH, USA). […] The fluorescence intensity was measured for 90 s (excitation 488 nm, emission 510 nm) in an automated fluorometric FlexStation®3 Multi-Mode microplate reader (Molecular Devices; San Jose, CA, USA). […] The Ca^2+ changes were expressed as fractional changes in fluorescent light intensity: ΔF/F = (F − F0)/F0, where F was the fluorescent light intensity at each point, and F0 was the value of emitted fluorescent light prior to stimulus application. To calculate dose–response relationships, the changes in fluorescence upon stimulus application were averaged, mock-subtracted and baseline-corrected. […] The half-maximal effective concentrations (EC50 values) and maximal signal amplitudes were calculated using SigmaPlot software (version 15.0) (Systat Software; San Jose, CA, USA).
For in vitro calcium mobilisation assay performed on hTAS1R2-SNPs, hTAS1R3-SNPs and mTAS1R3-I60T, 6 to 7 concentrations were tested for each sweet compound, plus buffer alone. All concentration–receptor combinations were measured in duplicate, and each experiment was repeated at least 4 times (8 wells/concentration). […]

C=C(C)[C@@H]1CC=C(/C=N/O)CC1 [Perillartine, perillartine]
EC50: 149 ± 22.7 µM | R1 = Variant EC50/WT EC50: 1.7 | Max ΔF/F0 (maximal signal amplitude): 0.33 ± 0.02
